Measurements as given in the supplement of paper PMC8633005.

Columns and labels:
Assay in all cases: drug sensitivity score (DSS) (DSS (unitless, 0-50 scale)); higher = more sensitive (stronger viability inhibition); extreme values may be limits of the assay
Settings in all cases: 72 h; culture: 2D
WM165 = test system: WM165
Procedure, shortened: (§1)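 Viability was measured by CellTiter-Glo luminescence after 72 h at 37 °C in 384-well plates holding a 527-compound oncology library, with patient-derived melanoma cultures (1000–1500 cells per well) and melanoma cell lines grown in 2D. Every compound was tested at five concentrations spanning a 10,000-fold range. The drug sensitivity score, a modified area under the curve, came from dose-response curves fitted with in-house Breeze software.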

Bowes = test system: Bowes
Procedure, shortened: as §1

SK-MEL-28 = test system: SK-MEL-28
Procedure, shortened: as §1

WM852 = test system: WM852
Procedure, shortened: as §1

FM-MEL-2 = test system: FM-MEL-2
Procedure, shortened: as §1

SK-MEL-2 = test system: SK-MEL-2
Procedure, shortened: as §1

FM-MEL-3 = test system: FM-MEL-3
Procedure, shortened: as §1

FM-MEL-6 = test system: FM-MEL-6
Procedure, shortened: as §1

Structure (SMILES)	drug sensitivity score (WM165)	drug sensitivity score (Bowes)	drug sensitivity score (SK-MEL-28)	drug sensitivity score (WM852)	drug sensitivity score (FM-MEL-2)	drug sensitivity score (SK-MEL-2)	drug sensitivity score (FM-MEL-3)	drug sensitivity score (FM-MEL-6)
CO[C@@H]1[C@H](N(C)C(=O)c2ccccc2)C[C@H]2O[C@]1(C)n1c3ccccc3c3c4c(c5c6ccccc6n2c5c31)C(=O)NC4 [Midostaurin]	14.6	5.1	4.3	8.1	3.5	2.9	5.4	2.3
CNC(=O)c1nn(C)c2c1C(C)(C)Cc1cnc(Nc3ccc(N4CCN(C)CC4)cc3)nc1-2 [Milciclib]	12	11	8.7	5.1	6.5	7	7.5	9
CCCCCCCCCCCCCCCCOP(=O)([O-])OCC[N+](C)(C)C [Miltefosine]	6.2	5.9	1.8	2	0.4	2.1	6	1.2
CO[C@@]12[C@H](COC(N)=O)C3=C(C(=O)C(C)=C(N)C3=O)N1C[C@@H]1N[C@@H]12 [Mitomycin C]	6.2	3.1	1.9	0	0.2	2	3.5	0.8
Clc1ccc(C(c2ccccc2Cl)C(Cl)Cl)cc1 (stereo not drawn) [Mitotane]	0	1	0	0	0	0	0	0
O=C1c2c(O)ccc(O)c2C(=O)c2c(NCCNCCO)ccc(NCCNCCO)c21 [Mitoxantrone]	16.8	6.7	6.1	5.5	7.1	3.4	3.9	5.4
CCS(=O)(=O)Nc1ccc(Oc2ccc(F)cc2F)c(-c2cn(C)c(=O)c3[nH]ccc23)c1 [Mivebresib]	24.2	17	12.2	0.4	16.3	9	16.2	15.8
Nc1ccccc1NC(=O)c1ccc(CNc2nccc(-c3cccnc3)n2)cc1 [Mocetinostat]	11.9	6.4	9.9	1.7	6.7	9.4	8.4	11.4
CCNC(=O)C[C@@H]1N=C(c2ccc(Cl)cc2)c2cc(OC)ccc2-n2c(C)nnc21 [Molibresib]	6.5	3.8	1.8	0	3.8	0.5	4.8	5
N#CCNC(=O)c1ccc(-c2ccnc(Nc3ccc(N4CCOCC4)cc3)n2)cc1 [Momelotinib]	7.2	4.1	3.7	1.9	3.7	0.2	1.2	1.1
CC1(C)CNc2cc(NC(=O)c3cccnc3NCc3ccncc3)ccc21 [Motesanib]	0	0	0	0	0	0	0	0
CCCN(CCC)C(=O)C1=Cc2ccc(-c3ccc(C(=O)N4CCCC4)cc3)cc2N=C(N)C1 [Motolimod]	0	1.6	0	2.8	0.5	0	1.1	1.3
FC(F)(F)c1ccc(/C=C/c2nc(COc3ccc(CCCCn4ccnn4)cc3)co2)cc1 [Mubritinib]	2.3	6.4	0	15.5	0	0	9.3	0
Cc1cc(OCc2nnc(SC3CCCC3)n2-c2cccnc2)ccc1-c1ccc(S(C)(=O)=O)cc1 [NMS-873]	9.4	11.1	6.8	16.9	4.1	4.4	11.4	5
COc1ccc(-c2ccc3ncc4c(c3c2)n(-c2ccc(N3CCNCC3)c(C(F)(F)F)c2)c(=O)n4C)cn1 [NVP-BGT226]	18.3	19	11.5	11.9	11.7	13.6	13.1	12
Cc1ccc(C(=O)Nc2cccc(C(F)(F)F)c2)cc1Nc1nc(-c2cccnc2)nc2c1cnn2C [NVP-BHG712]	1.9	0	1.3	4.7	6.8	0	10.6	3.6
COc1cc2c(cc1OC(C)C)[C@H](c1ccc(Cl)cc1)N(c1ccc(N(C)C[C@H]3CC[C@H](N4CCN(C)C(=O)C4)CC3)cc1)C(=O)C2 [NVP-CGM097]	18	5.1	6.2	6.8	7.6	3.7	13.1	5
CN[C@@H](C)C(=O)N[C@H](C(=O)N1CCC[C@H]1c1nc(C(=O)c2ccc(F)cc2)cs1)C1CCCCC1 [NVP-LCL161]	0	3	0.9	2.4	14.9	0.2	4.5	3.9
Cn1c(Nc2ccc(C(F)(F)F)cc2)nc2cc(Oc3ccnc(-c4ncc(C(F)(F)F)[nH]4)c3)ccc21 [NVP-RAF265]	8.2	0.1	2.7	0	5.5	2.6	9.2	2
CC(=O)c1cc2c(o1)C(=O)c1ccccc1C2=O [Napabucasin]	27	20.5	16.8	19.1	4.2	15.7	19.6	22.1
CC1(C)CCC(c2ccc(Cl)cc2)=C(CN2CCN(c3ccc(C(=O)NS(=O)(=O)c4ccc(N[C@H](CCN5CCOCC5)CSc5ccccc5)c(S(=O)(=O)C(F)(F)F)c4)cc3)CC2)C1 [Navitoclax]	0	0	0	0	4	0	12	0
